This assay deals with T1, aryl hydrocarbon receptor (Rattus norvegicus, UniProt P41738, Q794H).
T1 construct: The SD-line rat AhR gene-coding region was amplified from the reverse-transcribed sample by means of PCR; V5-His (C-terminal tag of vector pcDNA4/V5-His B); expressed in transfected cells; host or cells: mouse neuroblastoma Neuro2a, transient transfection with LIPOFECTAMINE 2000
T1 sequence (P41738 10-853 Q794H): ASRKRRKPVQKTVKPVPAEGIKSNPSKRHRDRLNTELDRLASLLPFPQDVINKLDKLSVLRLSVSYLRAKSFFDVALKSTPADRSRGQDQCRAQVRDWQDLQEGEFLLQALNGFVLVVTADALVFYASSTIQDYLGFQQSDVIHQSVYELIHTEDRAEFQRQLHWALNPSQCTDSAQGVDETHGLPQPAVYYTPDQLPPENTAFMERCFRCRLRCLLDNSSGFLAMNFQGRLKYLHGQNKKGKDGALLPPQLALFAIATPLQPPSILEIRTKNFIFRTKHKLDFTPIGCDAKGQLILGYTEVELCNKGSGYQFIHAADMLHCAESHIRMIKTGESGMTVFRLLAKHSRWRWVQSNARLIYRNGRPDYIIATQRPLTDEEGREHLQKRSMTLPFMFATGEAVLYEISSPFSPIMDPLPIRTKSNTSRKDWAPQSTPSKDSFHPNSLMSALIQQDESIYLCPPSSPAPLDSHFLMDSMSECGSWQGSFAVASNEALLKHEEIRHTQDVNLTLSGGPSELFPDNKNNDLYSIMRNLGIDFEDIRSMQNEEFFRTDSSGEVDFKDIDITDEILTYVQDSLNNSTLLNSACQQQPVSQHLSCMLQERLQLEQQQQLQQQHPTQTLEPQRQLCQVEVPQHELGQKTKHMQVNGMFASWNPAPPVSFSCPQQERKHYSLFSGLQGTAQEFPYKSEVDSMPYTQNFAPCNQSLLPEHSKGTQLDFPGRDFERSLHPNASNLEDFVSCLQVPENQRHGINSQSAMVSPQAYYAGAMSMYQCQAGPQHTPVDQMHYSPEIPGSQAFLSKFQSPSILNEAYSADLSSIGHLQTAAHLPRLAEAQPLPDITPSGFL
As to the kind of experiment: Reporter gene assay in Neuro2a with vectors having TH transcriptional regulatory regions different in length. It is filed as cell-based, SD-line rat. The following applies: 10 nM TCDD. As to the method:
Shorter fragments of TH transcriptional regulatory region (i.e., 2.0 kbp, 1.5 kbp, 1.0 kbp and 500 bp of fragments) were prepared by PCR using the 2.5 kbp of the TH transcriptional regulatory region incorporated into PGV-THp25 as a template. The following different forward primers were used for each fragment: 2.0-kbp fragment:
As the reverse primer, a common primer (5′-[…]-3′ (SEQ ID No: 17)) was used. Recognition sequence for a restriction enzyme KpnI was added to the terminal of each forward primer, and recognition sequence for a restriction enzyme NheI was added to the terminal of the reverse primer, in order to facilitate incorporation of the PCR amplification fragments into the vector. Pyrobest DNA polymerase (Takara Bio Inc.) was used in the PCR. The amplified TH transcriptional regulatory region fragments were digested with restriction enzymes KpnI and NheI, and subjected to electrophoresis on agarose. The corresponding bands were purified with a QIAQUICK Gel Extraction Kit (manufactured by Qiagen) and incorporated into PGV-B2 vector (TOYO B-NET) previously digested with KpnI and NheI.
These vectors were introduced into Neuro2a by a method similar to Example 3. The obtained cell was exposed to 10 nM TCDD, and the change in the expression amount of the reporter gene was examined in the cell (FIG. 3).
For narrowing down the region involved in transcriptional regulation by the test substance, shorter fragments of the transcriptional regulatory region (i.e., 400 bp, 300 bp, 200 bp and 100 bp of fragments) were prepared by PCR using the 500 bp of the TH transcriptional regulatory region as a template. The following forward primers were used for each fragment.
As the reverse primer, a common primer (5′-[…]-3′ (SEQ ID No: 17)) was used. Recognition sequence for a restriction enzyme KpnI was added to the terminal of each forward primer, and recognition sequence for a restriction enzyme NheI was added to the terminal of the reverse primer. The DNA fragments were amplified by using Pyrobest DNA polymerase (Takara Bio Inc.). […]

We go through one compound from patent US7811760B2, “Vector and method for detecting the change in transcription amount” (priority 2006, dated 2010).

On to `Clc1cc2c(cc1Cl)Oc1cc(Cl)c(Cl)cc1O2` [TCDD, 2,3,7,8-tetrachlorodibenzo-p-dioxine], for which the “change in the expression amount of the reporter gene (response)” value by setting is: (all vectors with TH transcriptional regulatory regions of 2.5 kbp to 500 bp) “there was a response to TCDD”; (vectors with TH transcriptional regulatory region of 500 bp, 400 bp or 300 bp) “there was a response to TCDD”; (vectors with region of 200 bp or 100 bp) “no response to TCDD”.
